The results in this text go back to patent publication US4740233A, “Substituted 1,2,4-triazolo[1,5-a]-pyrimidine-2-sulfonamides and compositions and methods of controlling undesired vegetation and suppressing the nitrification of ammonium nitrogen in soil” (The Dow Chemical Company, priority 1986, dated 1988).

The test system of assay [1] is pigweed. The assay is described as follows: Postemergent control of plant species. Type of assay: in vivo, Amaranthus spp. As to conditions: Amaranthus retroflexus, post-emergence, 336 h, read-out: percent postemergent control. The method in brief: (§1)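 Each compound is dissolved in acetone, mixed with an equal volume of 0.1% surfactant water, and sprayed on plants grown to 2-4 leaves in nutrient soil. Treated and untreated beds sit under identical greenhouse temperature and light for roughly two weeks before growth reduction is rated.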

Assay [2] relates to rice. The assay is described as follows: Postemergent control of plant species. Type of assay: in vivo, Oryza sativa. To be noted: Oryza sativa, post-emergence, 336 h, read-out: percent postemergent control. The method in brief: as §1
In assay [3] the test system is johnson grass. The assay is described as follows: Postemergent control of plant species. To be noted: Sorghum halepense, post-emergence, 336 h, read-out: percent postemergent control. It counts as in vivo, Sorghum halepense. The method in brief: as §1
Assay [4] deals with cotton. The assay is described as follows: Postemergent control of plant species. Type of assay: in vivo, Gossypium spp. As to conditions: Gossypium hirsutum, post-emergence, 336 h, read-out: percent postemergent control. Put shortly:
as §1

Assay [5] deals with velvetleaf. The assay is described as follows: Postemergent control of plant species. Type of assay: in vivo, Abutilon theophrasti. To be noted: Abutilon theophrasti, post-emergence, 336 h, read-out: percent postemergent control. The method in brief: as §1
For assay [6], the system named is jimsonweed. The assay is described as follows: Postemergent control of plant species. It counts as in vivo, Datura stramonium. To be noted: Datura stramonium, post-emergence, 336 h, read-out: percent postemergent control. The method in brief: as §1
For assay [7], the system named is wild oats. The assay is described as follows: Postemergent control of plant species. Type of assay: in vivo, Avena fatua. To be noted: Avena fatua, post-emergence, 336 h, read-out: percent postemergent control. The method in brief: as §1
Assay [8] deals with rape. The assay is described as follows: Postemergent control of plant species. It counts as in vivo, Brassica napus. To be noted: Brassica napus, post-emergence, 336 h, read-out: percent postemergent control. The method in brief:
as §1

Assay [9] concerns wheat. The assay is described as follows: Postemergent control of plant species. Type of assay: in vivo, Triticum aestivum. As to conditions: Triticum aestivum, post-emergence, 336 h, read-out: percent postemergent control. Put shortly: as §1
For assay [10], the system named is sugar beet. The assay is described as follows: Postemergent control of plant species. It counts as in vivo, Beta saccharifera. As to conditions: Beta vulgaris, post-emergence, 336 h, read-out: percent postemergent control. The method in brief:
as §1

For assay [11], the system named is yellow foxtail. The assay is described as follows: Postemergent control of plant species. It counts as in vivo, Setaria lutescens. To be noted: Setaria, post-emergence, 336 h, read-out: percent postemergent control. Put shortly:
as §1

The test system of assay [12] is barnyardgrass. The assay is described as follows: Postemergent control of plant species. Type of assay: in vivo, Echinochloa crusgalli. As to conditions: Echinochloa crus-galli, post-emergence, 336 h, read-out: percent postemergent control. The method in brief: as §1
The test system of assay [13] is cocklebur. The assay is described as follows: Postemergent control of plant species. It counts as in vivo, Xanthium spp. As to conditions: Xanthium strumarium, post-emergence, 336 h, read-out: percent postemergent control. The method in brief:
as §1

Assay [14] deals with yellow nutsedge. The assay is described as follows: Postemergent control of plant species. To be noted: Cyperus, post-emergence, 336 h, read-out: percent postemergent control. Type of assay: in vivo, Cyperus esculentus. Put shortly:
as §1

Assay [15] has as its system corn. The assay is described as follows: Postemergent control of plant species. Type of assay: in vivo, Zea mays. As to conditions: Zea mays, post-emergence, 336 h, read-out: percent postemergent control. Put shortly: as §1
Assay [16] has as its system sorghum. The assay is described as follows: Postemergent control of plant species. Type of assay: in vivo, Sorghum vulgare. As to conditions: Sorghum, post-emergence, 336 h, read-out: percent postemergent control. The method in brief: as §1
The subject of assay [17] is crabgrass. The assay is described as follows: Postemergent control of plant species. Type of assay: in vivo, Digitaria spp. To be noted: Digitaria sanguinalis, post-emergence, 336 h, read-out: percent postemergent control. The method in brief: as §1
Assay [18] relates to nitrification of ammonium nitrogen. The assay is described as follows: Suppression of nitrification of ammonium nitrogen in soil. As to conditions: 27° C. The method in brief:
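Soil (20 g) moistened to its 1/3 bar tension value, mixed with test chemical and incubated sealed for two weeks at 27° C. Nitrate extracted with ammonium sulfate solution and measured by nitrate-specific ion electrode; value given as % NH4-N remaining.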

In assay [19] the test system is annual morning glory. The assay is described as follows: Postemergent control of plant species. It counts as in vivo, Ipomoea spp. To be noted: Ipomoea, post-emergence, 336 h, read-out: percent postemergent control. The method in brief:
as §1

In assay [20] the test system is soybean. The assay is described as follows: Postemergent control of plant species. It counts as in vivo, Glycine max. As to conditions: Glycine max, post-emergence, 336 h, read-out: percent postemergent control. Put shortly:
as §1

With `O=S(=O)(Nc1c(F)cccc1F)c1nc2ncc(Cl)cn2n1` [Compound 117, 6-chloro-N-(2,6-difluorophenyl)-1,2,4-triazolo[1,5-a]pyrimidine-2-sulfonamide], the pest or weed control at 500 ppm in assay [1] turned out to be 75%; in [3], 75%; in assay [5] it was 100%; in [6] it was 100%; in [7], 0%; in assay [11] it was 65%. In addition, the pest or weed control at 500 ppm was determined as 0% in assay [12]; 100% in assay [13]; 25% in assay [14]; 0% in assay [17]; 80% in [19]. Moreover, the plant injury at 500 ppm came to 0% in assay [2]; 90% in [4]; 100% in [8]; 0% in assay [9]; 100% in [10]; 0% in assay [15]. Further, the plant injury at 500 ppm in [16] is 60%; in assay [20] it was 35%. Moreover, the “% NH4-N Remaining After 2 Weeks Incubation” value in [18] (0.06 ppm) is given as 32%; in assay [18] (0.25 ppm), 24%; in [18] (1 ppm) it was 41%; in assay [18] (4 ppm) it was 72%.
Regarding `CCOc1cnc2nc(S(=O)(=O)Nc3ccccc3C(F)(F)F)nn2c1` [Compound 201], the pest or weed control at 500 ppm in assay [1] turned out to be 90%; in [3], 0%; in assay [5], 60%; in [6] it was 70%; in [7] it was 0%; in [11], 0%. For the same compound, the pest or weed control at 500 ppm stood at 0% in assay [12]; 80% in assay [13]; 0% in assay [14]; 0% in [17]; 0% in assay [19]. In addition, the plant injury at 500 ppm in assay [2] amounted to 0%; in [4] it was 0%; in assay [8] it was 20%; in [9] it was 0%; in assay [10], 50%; in assay [15] it was 0%. The plant injury at 500 ppm in [16] and in assay [20] was 0% in each case. Besides, the “% NH4-N Remaining After 2 Weeks Incubation” value is 0% in [18] (0.06 ppm), 11% in assay [18] (0.25 ppm), 56% in [18] (1 ppm) and 67% in [18] (4 ppm).
For the compound `Cc1cc(C)n2nc(S(=O)(=O)Nc3ccc(F)cc3Cl)nc2n1` [Compound 30], the pest or weed control at 500 ppm in assay [1] stood at 0%; in [3], 0%; in [5], 40%; in assay [6] it was 0%; in assay [7], 0%; in assay [11], 0%. Also, the pest or weed control at 500 ppm in assay [12] worked out at 0%; in [13], 40%; in assay [14], 0%; in assay [17] it was 0%; in [19], 60%. Also, the plant injury at 500 ppm in [2] stood at 20%; in assay [4], 0%; in [8], 40%; in assay [9], 0%; in assay [10], 0%; in assay [15], 0%. In addition, the plant injury at 500 ppm worked out at 0% in assay [16] and 30% in assay [20]. For the same compound, the “% NH4-N Remaining After 2 Weeks Incubation” value stood at 0% in [18] (0.01 ppm), 6% in assay [18] (0.1 ppm), 54% in assay [18] (1 ppm) and 81% in assay [18] (10 ppm).
Consider `O=S(=O)(Nc1ccccc1C(F)(F)F)c1nc2ncccn2n1` [Compound 136], for which the pest or weed control at 500 ppm turned out to be 90% in [1]; 0% in assay [3]; 70% in [5]; 30% in assay [6]; 0% in assay [7]; 0% in [11]. Further, the pest or weed control at 500 ppm in assay [12] worked out at 0%; in [13] it was 98%; in assay [14], 0%; in [17] it was 0%; in [19], 40%. For the same compound, the plant injury at 500 ppm in [2] is 0%; in assay [4], 30%; in [8] it was 80%; in assay [9], 0%; in assay [10], 80%; in assay [15], 0%. Besides, the figures for the plant injury at 500 ppm in assay [16] and in [20] were 0% and 30%, respectively. In addition, the “% NH4-N Remaining After 2 Weeks Incubation” value in [18] (0.01 ppm) is recorded as 0%; in assay [18] (0.1 ppm), 10%; in [18] (1 ppm), 67%; in assay [18] (10 ppm), 98%.
As to `Cc1nc2nc(S(=O)(=O)Nc3ccccc3C(F)(F)F)nn2c2c1CCC2` [Compound 106], the pest or weed control at 500 ppm in assay [1] was determined as 40%; in assay [3] it was 90%; in assay [5], 0%; in [6], 0%; in assay [7], 30%; in assay [11], 0%. Besides, the pest or weed control at 500 ppm in assay [12] is 30%; in [13] it was 90%; in assay [14] it was 0%; in [17], 0%; in assay [19] it was 80%. The plant injury at 500 ppm in [2] was 30%; in assay [4] it was 30%; in [8] it was 40%; in assay [9], 20%; in [10] it was 0%; in assay [15], 90%. For the same compound, the plant injury at 500 ppm in assay [16] came to 40%; in assay [20] it was 90%. Further, the “% NH4-N Remaining After 2 Weeks Incubation” value in assay [18] (0.01 ppm) came to 29%; in assay [18] (0.1 ppm), 56%; in assay [18] (1 ppm), 88%; in [18] (10 ppm) it was 96%.
As for `Cc1cc(C)n2nc(S(=O)(=O)Nc3c(Cl)cccc3CO)nc2n1` [Compound 93], the pest or weed control at 500 ppm in assay [1] came out at 70%; in [3] it was 0%; in assay [5] it was 20%; in [6], 80%; in assay [7] it was 0%; in assay [11] it was 0%. Moreover, the pest or weed control at 500 ppm in [12] is 0%; in assay [13] it was 80%; in [14] it was 15%; in [17] it was 0%; in assay [19] it was 0%. In addition, the plant injury at 500 ppm in assay [2] was determined as 0%; in [4] it was 0%; in [8], 70%; in [9], 0%; in assay [10] it was 70%; in assay [15] it was 0%. Also, the plant injury at 500 ppm came out at 0% in assay [16] and 90% in [20]. Moreover, the “% NH4-N Remaining After 2 Weeks Incubation” value is 79% in [18] (0.06 ppm), 57% in [18] (0.25 ppm), 64% in assay [18] (1 ppm) and 89% in assay [18] (4 ppm).
